Patent publication US20100008983A1 (priority 2008, published 2010)
Counter-ions that a name gives are not always drawn. Like-named read-outs stand apart in the source and are kept apart here.

Conditions: stirring

C#CCN[C@@H]1CCc2ccccc21 [Rasagiline mesylate, R(+)-N-propargyl-1-aminoindan]
Solubility (Observation: amount soluble, clear solution) (Capmul MCM (glyceryl mono- & dicaprate), RT): 64 mg/g soluble,
Solubility (Observation: amount soluble, clear solution) (Cremophor EL (polyoxyethylene castor oil derivative), RT): 25 mg/g soluble,
Solubility (Observation: amount soluble, clear solution) (Ethanol, RT): 66.6 mg/g soluble,
Solubility (Observation) (Gelucire 44/14 (Lauroyl macrogol-32 glyceride), 45-50° C.): Not soluble
Solubility (Observation) (Labrafil M 1944 CS (polyoxyethylated glycolysed glycerides), 37° C.): Not soluble
Solubility (Observation) (Labrafil M 1944 CS (polyoxyethylated glycolysed glycerides), RT): Not soluble
Solubility (Observation: amount soluble, clear solution) (Labrasol (Caprylocaproyl macrogol-8 glyceride), 37-40° C.): 10 mg/g soluble,
Solubility (Observation) (Miglyol 810 (Caprylic/Capric Triglyceride), 37° C.): Not soluble
Solubility (Observation) (Miglyol 810 (Caprylic/Capric Triglyceride), RT): Not soluble
Solubility (Observation: amount soluble, clear solution) (Polyethylene Glycol 400, RT): 25 mg/g soluble,
Solubility (Observation: amount soluble, clear solution) (Propylene Glycol, RT): 25 mg/g soluble,
Solubility (Observation) (Soybean oil, 37° C.): Not soluble
Solubility (Observation) (Soybean oil, RT): Not soluble
Solubility (Observation: amount soluble, clear solution) (Transcutol (2-(2-ethoxyethoxy)ethanol), RT): 25 mg/g soluble,
Solubility (Observation: amount soluble, clear solution) (Tween 80 (polyoxyethylene sorbitan fatty acid esters), RT): 10 mg/g soluble,
